1 compound from patent publication US20180251425A1, “2,3,5 TRISUBSTITUTED PYRROLE DERIVATIVES AS TOPOISOMERASE INHIBITORS AND THERAPEUTIC USES THEREOF” (UNIVERSITY OF MYSORE, priority 2015, published 2018) can be followed below.

This assay deals with T1, recombinant human DNA topoisomerase I (Homo sapiens, UniProt P11387).
T1 construct: purchased TopoGEN; Inc
T1 sequence (P11387 1-765): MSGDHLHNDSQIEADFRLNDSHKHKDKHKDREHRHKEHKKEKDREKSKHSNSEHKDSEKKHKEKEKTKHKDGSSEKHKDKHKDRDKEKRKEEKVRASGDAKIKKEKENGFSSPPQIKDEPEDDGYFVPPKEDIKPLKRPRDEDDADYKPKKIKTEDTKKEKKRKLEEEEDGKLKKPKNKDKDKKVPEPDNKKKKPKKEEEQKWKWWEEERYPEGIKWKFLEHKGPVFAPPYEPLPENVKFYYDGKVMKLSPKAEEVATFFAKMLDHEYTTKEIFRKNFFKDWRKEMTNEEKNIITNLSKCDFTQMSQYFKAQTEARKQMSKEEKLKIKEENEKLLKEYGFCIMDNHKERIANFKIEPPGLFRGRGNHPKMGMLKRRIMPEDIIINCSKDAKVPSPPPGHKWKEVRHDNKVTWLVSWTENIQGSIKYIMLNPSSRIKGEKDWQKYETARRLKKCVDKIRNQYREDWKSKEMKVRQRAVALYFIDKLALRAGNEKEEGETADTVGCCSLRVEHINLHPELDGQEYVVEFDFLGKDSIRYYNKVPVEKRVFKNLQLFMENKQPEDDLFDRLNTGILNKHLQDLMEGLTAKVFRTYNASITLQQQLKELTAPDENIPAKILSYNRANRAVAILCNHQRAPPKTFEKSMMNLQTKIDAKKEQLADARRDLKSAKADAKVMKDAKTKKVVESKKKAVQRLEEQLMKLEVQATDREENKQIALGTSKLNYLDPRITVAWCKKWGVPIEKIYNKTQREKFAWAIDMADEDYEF
In words: Topoisomerase I DNA relaxation assay. It is filed as biochemical. The settings on record: 0, 10, 25, 50 and 100 μM, supercoiled pBS-SK+ plasmid, 37° C. 30 min. As to the method:
In order to determine the ability of ASR6 of topoisomerase I activity assay was performed, in a reaction mixture containing supercoiled plasmid DNA (pBS-SK+) was isolated using Gen Elute plasmid miniprep kit (Sigma Aldrich), according to manual instructions. ˜200 ng plasmid and two units of recombinant human DNA topoisomerase I (TopoGEN. Inc) along with the different concentrations of ASR6 (0, 10, 25, 50 and 100 μM) was added at RT for 5 min; equal amount of DMSO was used as vehicle control. Reaction was carried out at 37° C. for 30 min in a relaxation buffer 1× topoI buffer (50 mM Tris-HCl (pH 8.0), 10 mM NaCl, 10 mM MgCl2, 5 mM ATP, 0.5 mM dithiothreitol and 30 μg BSA/ml) and reactions were terminated by adding 5× stop buffer containing 5% sarkosyl, 0.0025% bromophenol blue, 25% glycerol. The DNA samples were electrophoresed on 1% agarose gel at 45 volts for 4 h with 0.5×TBE (Tris-borate-EDTA). The gels were stained for 30 min in milli Q water containing ethidium bromide (0.5 mg/ml) followed by distaining for 30 min in milli Q water and images were taken (FIG. 5). […] Topotecan (Topo I inhibitor) was used as positive control for topoisomerase I.

As for `CCOC(=O)c1[nH]c(-c2ccc(Cl)cc2)cc1-c1cccnc1` [ASR6, Ethyl 5-(4-chlorophenyl)-3-(pyridin-3-yl)-1H-pyrrole-2-carboxylate], the “Inhibition of topoisomerase I activity (DNA relaxation)” value is “does not inhibit topoisomerase I activity”.
